Our source for the EC50 values is BindingDB's records for doi:10.1021/acs.jmedchem.9b00607 (National Institute On Drug Abuse-Intramural Research Program, 2019).

The target in the experiment is D(3) dopamine receptor (Homo sapiens, UniProt P35462). Description: Agonist activity at human D3 receptor expressed in CHO cells assessed as stimulation of […] mitogenesis.

Structures are written as SMILES.

Chain of D(3) dopamine receptor (P35462 as listed by the source): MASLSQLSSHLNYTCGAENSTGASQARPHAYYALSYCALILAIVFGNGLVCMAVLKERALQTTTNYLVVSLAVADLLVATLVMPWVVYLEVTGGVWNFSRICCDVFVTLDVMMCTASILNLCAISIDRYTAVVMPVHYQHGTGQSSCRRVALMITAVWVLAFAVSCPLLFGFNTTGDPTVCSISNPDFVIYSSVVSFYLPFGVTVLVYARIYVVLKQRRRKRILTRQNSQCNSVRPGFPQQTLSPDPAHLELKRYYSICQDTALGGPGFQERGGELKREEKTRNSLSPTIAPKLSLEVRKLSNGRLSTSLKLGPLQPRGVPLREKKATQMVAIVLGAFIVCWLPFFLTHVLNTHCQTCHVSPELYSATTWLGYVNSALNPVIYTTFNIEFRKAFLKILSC

As to `CCc1cc(Cl)c(OC)c(N2CCN(C[C@@H](O)CCNC(=O)c3cc4ccccc4[nH]3)CC2)c1`, the EC50 (as a rule, the concentration needed to bring the measured effect to its halfway point) was over 6.8 µM.

For the molecule `CCc1cc(Cl)c(OC)c(N2CCN(C[C@H](O)CCNC(=O)c3cc4ccccc4[nH]3)CC2)c1`, the EC50 was over 3.2 µM.
